Measured values: paper PMC8080589, “Modulation of αVβ6 integrin in osteoarthritis-related synovitis and the interaction with VTN(381–397 a.a.) competing for TGF-β1 activation” (Experimental & Molecular Medicine, 2021)
Ends that are not written are not given here.

Key:
integrin αVβ6 = target: T1, integrin αVβ6 (Homo sapiens, UniProt P06756+P18564); test: Competition study, 125ISIB-echistatin vs ligands on coated αVβ6; format: binding; conditions: competition with 125ISIB-echistatin on α5β1, αVβ1, αVβ3, αVβ5, αVβ6
T1 construct: purchased R&D System; Minneapolis, MN, USA
Description: A competition study was performed to investigate the interaction of VTN(381–397 a.a.) with five different integrins. Radiolabeled echistatin, a disintegrin known to bind integrin receptors, was used as a tracer for the binding assays. Lyophilized echistatin was provided by Bachem (Bubendorf, Switzerland) and radiolabeled by conjugation with a radioiodinated benzoate (^125ISIB) to the epsilon amino group of lysine side chains. For the five integrins, α5β1, αVβ1, αVβ3, αVβ5, and αVβ6 (R&D System; Minneapolis, MN, USA), a solution at 1.8 µg/mL was prepared with integrin-binding buffer (IBB; 20 mM Tris pH 7.4, 150 mM NaCl, 2 mM CaCl2, 1 mM MgCl2, 1 mM MnCl2). Nunc Maxisorp Module plates were coated overnight at 4 °C with integrin complex at 1.8 µg/mL. After the wells were washed with sample buffer (IBB, 0.5% BSA), blocking solution (IBB, 2% BSA) was added, and the microplate was incubated for 2 h at room temperature. The wells were then washed three times with IBB/0.5% BSA. Then, ^125ISIB-echistatin was diluted in sample buffer to fixed concentrations of 4, 4, 8, 8, and 20 nM for α5β1, αVβ1, αVβ3, αVβ5, and αVβ6 competition studies, respectively. The ^125ISIB-echistatin was mixed with sample buffer at a ratio of 1:1 (total binding = control well) or with increasing concentrations of ligands (Supplementary information SI1) [complete VTN, VTN(381–397 a.a.), VTN(365–381 a.a.)] at a ratio 1:1 and added to wells in duplicate. We used 1,4,7-triazacyclononane-1,4,7-triacetic acid (NOTA) as a negative control. […] After rinsing, bound radioactivity was quantified using a gamma counter. The percentage of relative binding of radiolabeled echistatin was calculated as follows: radioactivity in the test well*100/radioactivity in the reference well. […] For comparison of the potency of ligands in inhibiting bound ^125ISIB-echistatin for different integrin complexes, the half-maximal inhibitory concentration (IC50) was calculated. The IC50 value was determined by constructing a dose–response curve and examining the effect of different concentrations of ligands on ^125ISIB-echistatin binding. […]
To determine if VTN(381–397 a.a.) could interact with integrins, we investigated its ability to compete with radiolabeled echistatin for binding to five different integrin complexes: α5β1, αVβ1, αVβ3, αVβ5 and αVβ6. […] First, the binding affinity of echistatin to the five integrins was measured by determining the equilibrium dissociation constant (KD). […] The fixed concentration of radiolabeled echistatin was determined according to its KD value. For each ligand concentration, the relative binding of ^125ISIB-echistatin to coated integrins was then measured, and values were plotted versus the logarithm of ligand concentration.

αVβ3 = conditions: ref [32]; cited from earlier work
Description: (§1) In this study, we started to move towards a functional investigation of the role of VTN(381–397 a.a.) in OA. VTN is known to interact with integrin receptors by its RGD motif, which is positioned far upstream from VTN(381–397 a.a.) on the N-terminal end of VTN. However, Maile and colleagues also previously described a second integrin-binding site located within the HBD between amino acids 365 and 381[32],[33]. […] Considering that the fragment VTN(381–397 ...

β3 phosphorylation = conditions: through binding to αVβ3; ref [32]; cited from earlier work
Description: as §1

T1 sequence (P06756 31-992 limits assumed): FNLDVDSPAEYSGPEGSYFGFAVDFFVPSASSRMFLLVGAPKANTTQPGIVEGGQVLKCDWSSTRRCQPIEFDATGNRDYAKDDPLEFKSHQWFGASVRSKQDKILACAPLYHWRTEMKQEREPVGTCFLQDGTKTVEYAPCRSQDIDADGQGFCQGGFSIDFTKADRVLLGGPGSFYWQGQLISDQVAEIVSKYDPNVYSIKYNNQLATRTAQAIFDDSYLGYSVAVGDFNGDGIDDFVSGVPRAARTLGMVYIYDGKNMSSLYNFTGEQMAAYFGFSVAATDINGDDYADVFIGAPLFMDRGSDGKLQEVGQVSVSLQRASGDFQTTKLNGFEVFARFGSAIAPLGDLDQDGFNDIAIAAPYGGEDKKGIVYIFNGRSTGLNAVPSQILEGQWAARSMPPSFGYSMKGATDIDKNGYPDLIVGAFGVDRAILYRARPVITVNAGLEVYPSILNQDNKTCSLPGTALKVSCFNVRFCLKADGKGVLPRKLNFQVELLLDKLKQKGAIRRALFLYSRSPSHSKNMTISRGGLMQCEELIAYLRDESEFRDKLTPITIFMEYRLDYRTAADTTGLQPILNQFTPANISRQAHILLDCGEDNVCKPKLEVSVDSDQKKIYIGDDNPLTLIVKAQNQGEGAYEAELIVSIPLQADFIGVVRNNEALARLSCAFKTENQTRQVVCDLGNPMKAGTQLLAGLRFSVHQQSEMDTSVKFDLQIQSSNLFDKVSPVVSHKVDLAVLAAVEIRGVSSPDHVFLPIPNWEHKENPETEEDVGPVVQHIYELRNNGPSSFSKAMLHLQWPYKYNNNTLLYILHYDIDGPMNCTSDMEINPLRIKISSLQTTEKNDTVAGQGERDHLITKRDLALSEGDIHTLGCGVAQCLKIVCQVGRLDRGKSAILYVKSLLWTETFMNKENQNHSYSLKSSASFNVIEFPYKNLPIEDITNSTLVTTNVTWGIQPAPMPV
T1 sequence (P18564 22-707 limits assumed): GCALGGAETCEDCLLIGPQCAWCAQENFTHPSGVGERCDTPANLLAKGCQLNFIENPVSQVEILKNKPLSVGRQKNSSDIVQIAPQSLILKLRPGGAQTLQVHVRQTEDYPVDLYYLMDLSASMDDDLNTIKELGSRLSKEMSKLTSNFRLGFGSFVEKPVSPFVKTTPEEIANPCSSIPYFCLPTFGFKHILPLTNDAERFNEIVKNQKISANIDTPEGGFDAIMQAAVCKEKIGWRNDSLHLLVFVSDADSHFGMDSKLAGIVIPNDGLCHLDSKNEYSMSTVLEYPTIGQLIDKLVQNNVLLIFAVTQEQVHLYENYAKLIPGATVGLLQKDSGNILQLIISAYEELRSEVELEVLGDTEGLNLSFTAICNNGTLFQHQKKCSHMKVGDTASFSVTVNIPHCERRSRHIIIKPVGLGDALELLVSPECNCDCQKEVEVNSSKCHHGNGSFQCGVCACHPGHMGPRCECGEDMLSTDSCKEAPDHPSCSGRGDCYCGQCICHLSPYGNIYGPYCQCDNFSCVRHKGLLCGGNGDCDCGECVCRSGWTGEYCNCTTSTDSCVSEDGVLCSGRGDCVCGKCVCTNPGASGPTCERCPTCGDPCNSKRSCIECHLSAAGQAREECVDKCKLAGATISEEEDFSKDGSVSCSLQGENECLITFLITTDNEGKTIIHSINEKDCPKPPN

LAKKQRFRHRNRKGYRS [VTN(365–381 a.a.)]
integrin binding specificity (integrin αVβ6): only showed a high affinity for integrin αVβ6 | interaction with αVβ3 (αVβ3): could interact with αVβ3 | effect on β3 phosphorylation (β3 phosphorylation): its binding was sufficient to enhance β3 phosphorylation
